Experimental data: US20250026765A1, “SPIROHETEROCYCLE DERIVATIVE HAVING SEROTONIN RECEPTOR BINDING ACTIVITY” (Shionogi & Co., Ltd., priority 2021, published 2025)
Like-named read-outs stand apart in the source and are kept apart here.

How the values were obtained:
[1] = target: human recombinant 5-HT2C receptor (Homo sapiens (Human), UniProt P28335); experiment: 5-HT2C receptor binding inhibition test ([3H]-Mesulergine); settings: Jump-In HEK cell membrane, 37° C. 2 hours
Description: Test Example 2: 5-HT2C Receptor Binding Inhibition Test
(§1) (Each Experimental Condition)
Cell membrane: 0.5 μg of Jump-In HEK cell membrane (expressing human recombinant 5-HT2C receptor) per well
(§2) Assay buffer: Tris-HCl 50 mmol/L (pH 7.4) containing NaCl 120 mmol/L, MgCl2·6H2O 1 mmol/L, KCl 5 mmol/L, 0.1% BSA and CaCl2 2 mmol/L
Radioactive ligand: [^3H]-Mesulergine with a final concentration of around Kd value calculated by the following method
Non-specific ligand: Serotonin HCl with a final concentration of […]
(§3) The Kd value is calculated when the lot of cell membrane is changed. In advance, 0.5 μL of a 1 mmol/L compound for non-specific binding calculation dissolved in DMSO or DMSO is dispensed into a microplate, and the cell membrane is diluted with an Assay buffer. The radioactive ligand solution is serially diluted and the count is confirmed with a liquid scintillator. Assay buffer containing diluted cell membrane is dispensed into a microplate at 50 μL/well. Then, the radioactive ligand solution is dispensed into a microplate at 50 μL/well, and the plate is sealed. It is allowed to stand at 37° C. for 2 hours. During this period, 50 mmol/L Tris-HCl (pH 7.4) is dispensed into a GF/B UniFilter plate at 50 μL/well and allowed to stand at 4° C. for 1 hour or longer. After that, filtration is performed with Cell harvester (PerkinElmer). The radioactive ligand solution is dispensed into an empty well of the GF/B UniFilter plate at 10 μL/well. After the GF/B UniFilter plate is dried at room temperature, MicroScinti 20 is dispensed into the GF/B UniFilter plate at 50 μL/well to seal the plate. The GF/B UniFilter plate is allowed to stand overnight at room temperature. The radioactivity of [^3H]-Mesulergine bound to the 5-HT2C receptor is measured using Microbeta2 (PerkinElmer) at a measurement time of 1 min/well. The Saturation curve is drawn from the measured value, and the Kd value is calculated from the slope of the Scatchard Plot.
(§4) (Binding Test of the Compound According to the Present Invention)
In advance, 0.5 μL of the compound solution dissolved in DMSO is dispensed into a microplate, and the cell membrane and the hot ligand are diluted with Assay buffer, respectively. Then, the Assay buffer containing the diluted cell membrane is dispensed into a microplate at 50 μL/well. Then, the radioactive ligand solution is dispensed into a microplate at 50 μL/well, and the plate is sealed. Then, it is allowed to stand at 37° C. for 2 hours. During this period, 50 mmol/L Tris-HCl (pH 7.4) is dispensed into a GF/B UniFilter plate at 50 μL/well and allowed to stand at 4° C. for 1 hour or longer. After that, filtration is performed with Cell harvester (PerkinElmer). After the GF/B UniFilter plate is dried at room temperature, MicroScinti 20 is dispensed into the GF/B UniFilter plate at 50 μL/well, and the plate is sealed. The GF/B UniFilter plate is allowed to stand overnight at room temperature. The radioactivity of [^3H]-Mesulergine bound to the 5-HT2C receptor is measured using Microbeta2 (PerkinElmer) at a measurement time of 1 min/well. The non-specific binding is calculated from the radioactivity of […] in the presence of 500 μmol/L Serotonin HCl which is the unlabeled ligand, and the total binding is calculated from the radioactivity of [^3H]-Mesulergine in the absence of the compound according to the present invention (Vehicle). Finally, the Ki value is calculated from the dose-response curve.
(§5) (The binding activity of the compound according to the present invention is calculated from the following binding inhibition rate (%).)
(§6) [formula] • a; mean cpm of non-specific binding • b; average cpm of total binding • c; cpm in the presence of the test compound

[2] = target: human recombinant 5-HT2A receptor (Homo sapiens (Human), UniProt P28223); experiment: 5-HT2A receptor binding inhibition test ([3H]-Ketanserin); settings: Jump-In HEK cell membrane, 25° C. 1.5 hours
human recombinant 5-HT2A receptor, sequence (P28223 whole entry): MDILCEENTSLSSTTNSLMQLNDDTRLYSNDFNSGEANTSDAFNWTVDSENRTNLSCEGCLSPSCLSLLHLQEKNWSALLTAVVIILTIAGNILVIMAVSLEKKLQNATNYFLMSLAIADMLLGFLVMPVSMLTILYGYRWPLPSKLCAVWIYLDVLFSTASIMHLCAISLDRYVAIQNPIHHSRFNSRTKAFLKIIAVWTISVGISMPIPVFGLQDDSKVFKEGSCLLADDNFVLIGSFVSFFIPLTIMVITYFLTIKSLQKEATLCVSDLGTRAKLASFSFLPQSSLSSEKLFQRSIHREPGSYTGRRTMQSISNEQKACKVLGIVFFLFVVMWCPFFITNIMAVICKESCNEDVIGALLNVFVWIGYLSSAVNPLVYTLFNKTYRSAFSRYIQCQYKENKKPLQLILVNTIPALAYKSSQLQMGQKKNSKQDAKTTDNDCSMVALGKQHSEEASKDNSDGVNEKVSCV
Description: Test Example 1: 5-HT2A Receptor Binding Inhibition Test
as §1
Cell membrane: 15 μg of Jump-In HEK cell membrane (expressing human recombinant 5-HT2A receptor) per well
as §2
Radioactive ligand: [^3H]-Ketanserin with a final concentration of around Kd value calculated by the following method
Non-specific ligand: Serotonin HCl with a final concentration of 500 μmol/L
as §3, with “at room temperature (25° C.)” for “at 37° C.”, “for 1.5” for “for 2”, “of [^3H]-Ketanserin” for “of [^3H]-Mesulergine”, “the 5-HT2A” for “the 5-HT2C”
as §4
In advance, 0.5 μL of the compound solution dissolved in DMSO is dispensed into a microplate, and the cell membrane and the hot ligand are diluted with Assay buffer, respectively. Then, the Assay buffer containing the diluted cell membrane is dispensed into a microplate at 50 μL/well. Then, the radioactive ligand solution is dispensed into a microplate at 50 μL/well, and the plate is sealed. Then, it is allowed to stand at room temperature (25° C.) for 1.5 hours. During this period, 50 mmol/L Tris-HCl (pH 7.4) is dispensed into a GF/B UniFilter plate at 50 μL/well and allowed to stand at 4° C. for 1 hour or longer. After that, filtration is performed with Cell harvester (PerkinElmer). After the GF/B UniFilter plate is dried at room temperature, MicroScinti 20 is dispensed into the GF/B UniFilter plate at 50 μL/well to seal the plate. The GF/B UniFilter plate is allowed to stand overnight at room temperature. The radioactivity of [^3H]-Ketanserin bound to the 5-HT2A receptor is measured using Microbeta2 (PerkinElmer) at a measurement time of 1 min/well. The non-specific binding is calculated from the radioactivity of [^3H]-Ketanserin in the presence of 500 μmol/L Serotonin HCl which is the unlabeled ligand, and the total binding is calculated from the radioactivity of [^3H]-Ketanserin in the absence of the compound according to the present invention (Vehicle). Finally, the Ki value is calculated from the dose-response curve.
as §5, §6

[3] = read-out: human serotonin 5-HT2C receptor binding activity Ki
[4] = read-out: human serotonin 5-HT2A receptor binding activity Ki

human recombinant 5-HT2C receptor, sequence (P28335 33-458): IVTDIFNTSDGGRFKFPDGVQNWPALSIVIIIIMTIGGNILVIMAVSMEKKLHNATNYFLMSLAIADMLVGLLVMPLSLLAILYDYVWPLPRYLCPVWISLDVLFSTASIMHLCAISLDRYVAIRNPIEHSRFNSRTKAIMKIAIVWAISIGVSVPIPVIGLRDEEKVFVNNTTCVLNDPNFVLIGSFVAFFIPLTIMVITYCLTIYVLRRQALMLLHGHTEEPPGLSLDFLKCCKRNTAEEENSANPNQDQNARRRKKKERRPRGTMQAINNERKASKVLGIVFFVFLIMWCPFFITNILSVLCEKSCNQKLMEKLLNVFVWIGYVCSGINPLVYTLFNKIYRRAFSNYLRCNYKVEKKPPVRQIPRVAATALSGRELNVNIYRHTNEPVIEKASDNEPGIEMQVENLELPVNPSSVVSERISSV

Row | Structure (SMILES) | Ki ([1]; read-out: h-5-HT2C Ki) [nM] | Ki ([2]; read-out: h-5-HT2A Ki) [nM] | Ki [1, 3] [nM] | Ki [2, 4] [nM]
1 | Cc1nc(CN(Cc2ccc(OCC(C)C)cc2)C2=NOC3(CCN(C)CC3)N2)cs1 [Compound I-017] | < 10 | < 10 |  | 
2 | Cc1nc(CN(Cc2ccc(OCC(C)C)cc2)C2=NOC3(CCN(C)CC3)N2)no1 [Compound I-018] | < 10 | 10 to 100 |  | 
3 | CC(C)COc1ccc(CN(Cc2cn(C)cn2)C2=NOC3(CCN(C)CC3)N2)cc1 [Compound I-019] | 100 to 500 | < 10 |  | 
4 | CC(C)COc1ccc(CN(Cc2ccc(F)cc2)C2=NC3(CCN(C)CC3)CO2)cc1 [Compound I-020] | 100 to 500 | 10 to 100 |  | 
5 | CC(C)COc1ccc(CN(Cc2ccc(F)cc2)C2=NC(=O)C3(CCN(C)CC3)N2)cc1 [Compound I-021] | 10 to 100 | < 10 |  | 
6 | CC(C)COc1ccc(CN(Cc2ccc(F)cc2)C2=NC(=O)C3(CCNCC3)N2)cc1 [Compound I-022] | < 10 | < 10 |  | 
7 | CC(C)CNc1ccc(CN(Cc2ccn(C)n2)C2=NOC3(CCN(C)CC3)N2)cc1 [Compound I-023] | 10 to 100 | 10 to 100 |  | 
8 | CCCOc1ccc(CC2=NOC3(CCN(C)CC3)N2Cc2ccc(F)cn2)cc1 [Compound I-024] | 10 to 100 | < 10 |  | 
9 | CCCOc1ccc(CC2=NOC3(CCN(C)CC3)N2Cc2ccn(C)n2)cc1 [Compound I-025] | 10 to 100 | 10 to 100 |  | 
10 | CCCOc1ccc(CC2=NOC3(CCN(C)CC34CC4)N2Cc2ccc(F)cn2)cc1 (centres unmarked) [Compound I-026] | < 10 | < 10 |  | 
11 | CCCOc1ccc(CC2=NOC3(CCN(C)CC34CC4)N2Cc2ccn(C)n2)cc1 (centres unmarked) [Compound I-027] |  |  | 2.21 | 1.89
12 | CCCOc1ccc(CN(Cc2coc(C)n2)C2=NOC3(CCN(C)CC3)N2)cc1 [Compound I-028] | < 10 | < 10 |  | 
13 | CC(C)COc1ccc(CN(Cc2ccc(F)cn2)C2=NC(=O)C3(CCN(C)CC3)N2)cc1 [Compound I-030] | 10 to 100 | < 10 |  | 
14 | CC(C)COc1ccc(CN(Cc2cocn2)C2=NOC3(CCN(C)CC3)N2)cc1 [Compound I-031] | 10 to 100 | 10 to 100 |  | 
15 | Cc1cnc(CN(Cc2ccc(OCC(C)C)cc2)C2=NOC3(CCN(C)CC3)N2)o1 [Compound I-032] | 10 to 100 | 10 to 100 |  | 
16 | CC(C)COc1ccc(CN(Cc2ccn(C)n2)C2=NC(=O)C3(CCN(C)CC3)N2)cc1 [Compound I-033] |  |  | 19 | 10.1
